Experimental data as given in patent publication US8765677B2 (priority 2009, dated 2014).
pIC50: −log10 of the molar value. “Also recorded” adds a separate entry of the source. Where a SMILES comes first, the peptide text is derived from it.

Experiments:
N-type VGCCs = N-type VGCCs (Rattus norvegicus, UniProt Q02294); assay: biochemical; format: binding
[1] = test system: native VGCCs in DRG sensory neurons; format: cell-based, rat; settings: for maximum inhibition of inward Ba2+ current: 0.1 µM
[2] = test system: excitatory synaptic transmission between primary afferents and dorsal horn superficial lamina neurons; format: cell-based, rat
[3] = test system: nerve injury model of neuropathic pain; settings: rat, in vivo
[4] = test system: mice with CFA-induced mechanical allodynia; settings: mouse, in vivo, sc
Sprague-Dawley rats = settings: rat, in vivo
[5] = biological target: recombinant N-type (Cav2.2) VGCCs α1B-b/α2δ1/β3 (Rattus norvegicus, UniProt Q02294); assay: cell-based; format: cell-based
Chain of recombinant N-type (Cav2.2) VGCCs α1B-b/α2δ1/β3 (Q02294 whole entry, looked up): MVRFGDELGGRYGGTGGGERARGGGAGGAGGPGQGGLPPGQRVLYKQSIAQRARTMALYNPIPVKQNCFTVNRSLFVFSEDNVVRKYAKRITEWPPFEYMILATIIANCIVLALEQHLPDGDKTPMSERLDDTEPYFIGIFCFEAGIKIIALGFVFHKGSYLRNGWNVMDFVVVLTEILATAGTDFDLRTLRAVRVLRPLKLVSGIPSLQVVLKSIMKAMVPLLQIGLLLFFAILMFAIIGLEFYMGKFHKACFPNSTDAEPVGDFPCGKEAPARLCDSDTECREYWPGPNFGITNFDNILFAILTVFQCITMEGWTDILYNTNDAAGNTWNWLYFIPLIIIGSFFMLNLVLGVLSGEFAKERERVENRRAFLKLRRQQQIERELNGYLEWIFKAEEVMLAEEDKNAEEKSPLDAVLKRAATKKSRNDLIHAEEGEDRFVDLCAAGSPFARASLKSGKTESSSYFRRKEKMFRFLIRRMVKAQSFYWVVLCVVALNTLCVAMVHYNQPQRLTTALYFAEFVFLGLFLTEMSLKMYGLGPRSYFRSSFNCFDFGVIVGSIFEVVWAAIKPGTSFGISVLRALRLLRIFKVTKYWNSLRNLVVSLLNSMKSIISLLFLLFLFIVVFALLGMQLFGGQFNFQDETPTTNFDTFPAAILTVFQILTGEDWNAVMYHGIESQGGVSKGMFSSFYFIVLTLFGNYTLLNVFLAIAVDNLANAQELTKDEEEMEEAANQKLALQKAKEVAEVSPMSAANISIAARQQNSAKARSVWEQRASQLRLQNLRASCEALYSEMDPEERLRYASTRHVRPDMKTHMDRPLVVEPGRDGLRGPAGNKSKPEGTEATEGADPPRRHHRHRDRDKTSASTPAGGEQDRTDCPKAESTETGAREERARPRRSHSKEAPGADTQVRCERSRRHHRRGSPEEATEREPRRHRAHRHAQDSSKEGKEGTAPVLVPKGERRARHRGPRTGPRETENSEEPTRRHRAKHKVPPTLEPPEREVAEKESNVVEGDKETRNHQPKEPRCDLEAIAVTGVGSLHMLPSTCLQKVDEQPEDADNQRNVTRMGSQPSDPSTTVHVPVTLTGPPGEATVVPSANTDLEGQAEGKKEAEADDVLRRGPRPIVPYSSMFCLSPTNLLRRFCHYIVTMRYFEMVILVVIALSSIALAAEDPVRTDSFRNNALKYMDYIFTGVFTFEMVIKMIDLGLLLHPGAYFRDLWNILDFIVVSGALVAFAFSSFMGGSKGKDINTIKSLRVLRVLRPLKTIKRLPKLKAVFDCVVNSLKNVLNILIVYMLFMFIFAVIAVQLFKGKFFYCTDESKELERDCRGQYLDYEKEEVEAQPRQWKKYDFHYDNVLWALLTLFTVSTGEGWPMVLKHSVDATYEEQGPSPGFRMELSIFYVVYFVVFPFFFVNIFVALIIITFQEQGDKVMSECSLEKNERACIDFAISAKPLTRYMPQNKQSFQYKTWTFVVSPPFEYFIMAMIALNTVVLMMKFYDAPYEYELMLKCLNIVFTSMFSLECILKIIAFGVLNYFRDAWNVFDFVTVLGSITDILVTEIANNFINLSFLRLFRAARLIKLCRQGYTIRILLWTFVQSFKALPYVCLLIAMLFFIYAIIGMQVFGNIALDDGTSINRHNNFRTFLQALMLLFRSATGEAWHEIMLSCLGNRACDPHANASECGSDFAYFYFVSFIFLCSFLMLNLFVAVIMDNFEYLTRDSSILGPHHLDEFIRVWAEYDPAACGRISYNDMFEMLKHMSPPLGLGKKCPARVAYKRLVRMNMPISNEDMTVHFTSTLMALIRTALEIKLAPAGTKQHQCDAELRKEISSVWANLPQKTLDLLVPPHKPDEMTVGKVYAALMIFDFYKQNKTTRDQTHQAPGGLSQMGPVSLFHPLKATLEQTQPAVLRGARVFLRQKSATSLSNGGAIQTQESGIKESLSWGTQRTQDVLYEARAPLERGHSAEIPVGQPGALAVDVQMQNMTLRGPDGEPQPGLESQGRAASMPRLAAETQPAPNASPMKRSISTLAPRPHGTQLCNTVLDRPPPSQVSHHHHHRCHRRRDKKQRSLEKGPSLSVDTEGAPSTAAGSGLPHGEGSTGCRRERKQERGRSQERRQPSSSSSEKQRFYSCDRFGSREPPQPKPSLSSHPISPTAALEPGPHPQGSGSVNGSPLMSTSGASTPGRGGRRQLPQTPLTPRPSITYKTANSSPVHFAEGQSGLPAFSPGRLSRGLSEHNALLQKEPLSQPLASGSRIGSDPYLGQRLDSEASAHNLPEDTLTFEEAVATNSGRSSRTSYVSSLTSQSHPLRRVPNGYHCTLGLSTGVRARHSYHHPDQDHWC

[6] = biological target: recombinant N-type (Cav2.2) VGCCs α1B-b/α2δ1/β2a (Rattus norvegicus, UniProt Q02294); format: cell-based
Chain of recombinant N-type (Cav2.2) VGCCs α1B-b/α2δ1/β2a (Q02294 whole entry, looked up): as above

[7] = biological target: recombinant Cav1.2 α1C (L-type) channels (α/α2δ1/β3) (Oryctolagus cuniculus, UniProt P15381); format: cell-based, rabbit
Chain of recombinant Cav1.2 α1C (L-type) channels (α/α2δ1/β3) (P15381 whole entry, looked up): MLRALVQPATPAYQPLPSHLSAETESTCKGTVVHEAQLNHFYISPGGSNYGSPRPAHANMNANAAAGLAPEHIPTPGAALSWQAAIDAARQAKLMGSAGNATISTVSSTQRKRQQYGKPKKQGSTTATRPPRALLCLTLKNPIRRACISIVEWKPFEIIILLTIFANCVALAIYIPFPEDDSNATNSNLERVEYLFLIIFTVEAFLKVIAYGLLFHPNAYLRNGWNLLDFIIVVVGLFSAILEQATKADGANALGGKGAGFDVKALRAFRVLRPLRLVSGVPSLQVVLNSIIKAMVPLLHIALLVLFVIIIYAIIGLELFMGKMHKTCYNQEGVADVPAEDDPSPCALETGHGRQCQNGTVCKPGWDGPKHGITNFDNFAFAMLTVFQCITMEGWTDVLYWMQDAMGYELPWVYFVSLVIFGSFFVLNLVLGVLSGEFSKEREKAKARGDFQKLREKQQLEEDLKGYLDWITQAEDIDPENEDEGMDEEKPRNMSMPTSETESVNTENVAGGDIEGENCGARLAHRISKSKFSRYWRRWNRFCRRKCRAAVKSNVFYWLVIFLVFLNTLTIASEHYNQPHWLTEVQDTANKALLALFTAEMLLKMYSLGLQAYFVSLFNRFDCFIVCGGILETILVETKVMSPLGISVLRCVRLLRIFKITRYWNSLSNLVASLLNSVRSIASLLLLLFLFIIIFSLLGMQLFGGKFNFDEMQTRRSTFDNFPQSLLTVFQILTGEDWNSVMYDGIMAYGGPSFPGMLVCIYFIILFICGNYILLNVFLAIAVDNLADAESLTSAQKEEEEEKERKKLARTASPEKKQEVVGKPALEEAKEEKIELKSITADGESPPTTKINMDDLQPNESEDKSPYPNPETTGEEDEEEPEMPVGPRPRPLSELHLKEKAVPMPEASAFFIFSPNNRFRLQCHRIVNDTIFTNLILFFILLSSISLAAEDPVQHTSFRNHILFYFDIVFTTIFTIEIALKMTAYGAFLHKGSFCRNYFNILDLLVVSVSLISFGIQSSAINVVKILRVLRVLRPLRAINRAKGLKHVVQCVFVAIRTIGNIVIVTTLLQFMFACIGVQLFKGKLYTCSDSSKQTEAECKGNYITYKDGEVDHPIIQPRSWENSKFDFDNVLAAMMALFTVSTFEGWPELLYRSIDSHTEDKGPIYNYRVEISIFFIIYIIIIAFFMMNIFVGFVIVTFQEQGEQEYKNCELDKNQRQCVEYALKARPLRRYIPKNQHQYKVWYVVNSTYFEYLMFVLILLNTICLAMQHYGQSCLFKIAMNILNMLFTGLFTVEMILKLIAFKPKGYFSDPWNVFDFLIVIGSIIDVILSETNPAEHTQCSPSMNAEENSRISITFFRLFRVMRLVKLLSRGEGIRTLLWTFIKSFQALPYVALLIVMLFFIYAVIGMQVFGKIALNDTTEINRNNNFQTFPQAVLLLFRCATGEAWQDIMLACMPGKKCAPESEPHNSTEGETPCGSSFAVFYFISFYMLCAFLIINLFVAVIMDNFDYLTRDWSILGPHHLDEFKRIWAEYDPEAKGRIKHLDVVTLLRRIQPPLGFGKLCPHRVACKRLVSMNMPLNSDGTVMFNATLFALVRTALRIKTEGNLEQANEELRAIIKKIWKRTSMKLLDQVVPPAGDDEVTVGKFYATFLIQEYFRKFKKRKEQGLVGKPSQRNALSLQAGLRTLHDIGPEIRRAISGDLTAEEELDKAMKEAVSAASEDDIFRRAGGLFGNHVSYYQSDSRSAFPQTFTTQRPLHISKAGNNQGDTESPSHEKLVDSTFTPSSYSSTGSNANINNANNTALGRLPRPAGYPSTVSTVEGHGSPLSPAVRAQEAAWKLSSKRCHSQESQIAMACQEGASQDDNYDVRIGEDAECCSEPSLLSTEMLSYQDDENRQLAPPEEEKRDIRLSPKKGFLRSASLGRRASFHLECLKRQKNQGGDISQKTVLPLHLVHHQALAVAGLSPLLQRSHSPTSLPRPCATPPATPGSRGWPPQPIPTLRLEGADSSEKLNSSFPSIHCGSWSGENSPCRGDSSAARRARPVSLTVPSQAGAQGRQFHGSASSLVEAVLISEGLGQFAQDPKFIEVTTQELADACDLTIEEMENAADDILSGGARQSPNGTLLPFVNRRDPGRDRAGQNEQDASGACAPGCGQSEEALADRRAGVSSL

[8] = biological target: recombinant Cav1.3 α1D (L-type) channels (α/α2δ1/β3) (Rattus norvegicus, UniProt P27732); format: cell-based
[9] = biological target: recombinant Cav2.3 α1E (R-type) channels (α/α2δ1/β3) (Rattus norvegicus, UniProt Q07652); format: cell-based
[10] = biological target: recombinant Cav2.1 α1A (P/Q-type) channels (α/α2δ1/β3) (Oryctolagus cuniculus, UniProt P27884); assay: cell-based; design: species or system rabbit
[11] = test system: low-voltage-activated T-type VGCC in DRG neurons; format: cell-based, rat

Chain of N-type VGCCs (Q02294 whole entry, looked up): as the sequence (Q02294 whole entry, looked up) above

Structure (SMILES)	displacement of 125I-GVIA binding (N-type VGCCs)	pIC50 (N-type VGCCs; affinity)	pIC50 (N-type VGCCs; pIC50)	maximum inhibition of inward Ba2+ current [1] [%]	EPSC amplitude recovered after washout [2]	reduction of evoked monosynaptic EPSC amplitude [2] [%]	relief of mechanical allodynia [3]	reversal of incapacitance [4]	side effects (shakes, tail twitching, serpentine tail movements) (Sprague-Dawley rats)	Hill slope [5]	Hill slope [6]	effect on Cav1.2 channels [7]	effect on Cav1.3 channels [8]	effect on Cav2.3 channels [9]	effect on Cav2.1 channels [10]	effect on P/Q- and L-type VGCC current components [1]	effect on T-type current [11]
C[C@@H]1NC(=O)CNC(=O)[C@H](CCCCN)NC(=O)CNC(=O)[C@H](CCCCN)NC(=O)[C@@H](N)CSSC[C@@H]2NC(=O)[C@@H]3CSSC[C@@H](C(N)=O)NC(=O)[C@H](CCCNC(=N)N)NC(=O)CNC(=O)[C@H](CO)NC(=O)[C@H](CCCNC(=N)N)NC(=O)[C@H](CSSC[C@H](NC(=O)[C@H](CO)NC1=O)C(=O)N[C@@H](CCCNC(=N)N)C(=O)N[C@@H](CCCNC(=N)N)C(=O)N[C@@H]([C@@H](C)O)C(=O)N[C@@H](CO)C(=O)N[C@@H](Cc1ccc(O)cc1)C(=O)N[C@@H](CC(=O)O)C(=O)N3)NC(=O)[C@H](CO)NC(=O)CNC(=O)[C@H]([C@@H](C)O)NC2=O [CVIE, CKGKGASCRRTSYDCCTGSCRSGRC]	fully displaced	10.43	10.70	~50	78±7 % of control	67±5	completely relieves mechanical allodynia; also recorded: relieved mechanical allodynia	highly significant reversal of incapacitance; also recorded: subsided	substantially decreased side effects compared to CVID	–	–	–	–	–	–	–	–
C[C@@H](O)[C@@H]1NC(=O)[C@H](Cc2ccc(O)cc2)NC(=O)[C@@H]2C[C@@H](O)CN2C(=O)[C@H](CC(N)=O)NC(=O)[C@@H]2CSSC[C@@H]3NC(=O)[C@H](CO)NC(=O)[C@H](CO)NC(=O)CNC(=O)[C@@H]4C[C@@H](O)CN4C(=O)[C@H](CO)NC(=O)[C@H](CCCCN)NC(=O)[C@@H](N)CSSC[C@H](NC(=O)[C@H](CSSC[C@@H](C(=O)N[C@@H](Cc4ccc(O)cc4)C(N)=O)NC(=O)[C@H](CCCN=C(N)N)NC(=O)[C@H](CCCCN)NC1=O)NC(=O)[C@H](CC(N)=O)NC(=O)[C@H](Cc1ccc(O)cc1)NC(=O)[C@H](CO)NC(=O)[C@H]([C@@H](C)O)NC(=O)[C@@H]1C[C@@H](O)CN1C(=O)[C@H](CO)NC3=O)C(=O)N[C@@H](CCCN=C(N)N)C(=O)N[C@@H](CO)C(=O)N2 [GVIA, reference compound]	–	10.62	10.60	–	–	–	–	–	–	–	–	–	–	–	–	–	–
CC(C)C[C@@H]1NC(=O)[C@H](CCCNC(=N)N)NC(=O)[C@@H]2CSSC[C@@H]3NC(=O)[C@H](CO)NC(=O)[C@H](C)NC(=O)CNC(=O)[C@H](CCCCN)NC(=O)CNC(=O)[C@H](CCCCN)NC(=O)[C@@H](N)CSSC[C@H](NC(=O)[C@H](CSSC[C@@H](C(N)=O)NC(=O)[C@H](CCCNC(=N)N)NC(=O)CNC1=O)NC(=O)[C@H](CC(=O)O)NC(=O)[C@H](Cc1ccc(O)cc1)NC(=O)[C@H](CO)NC(=O)[C@H]([C@@H](C)O)NC(=O)[C@H](CCCCN)NC(=O)[C@H](CCCNC(=N)N)NC3=O)C(=O)N[C@@H]([C@@H](C)O)C(=O)NCC(=O)N[C@@H](CO)C(=O)N2 [[R10K]CVIF] (HELM PEPTIDE1{C.K.G.K.G.A.S.C.R.K.T.S.Y.D.C.C.T.G.S.C.R.L.G.R.C.[am]}$PEPTIDE1,PEPTIDE1,1:R3-16:R3|PEPTIDE1,PEPTIDE1,8:R3-20:R3|PEPTIDE1,PEPTIDE1,15:R3-25:R3$$$V2.0)	–	–	–	–	–	–	relieved mechanical allodynia	highly significant reversal of incapacitance; also recorded: sustained	substantially decreased side effects compared to CVID	0.65±0.04	0.86±0.04	neither [R10K]CVIE or [R10K]CVIF had any effect	neither [R10K]CVIE or [R10K]CVIF had any effect	neither [R10K]CVIE or [R10K]CVIF had any effect	neither [R10K]CVIE or [R10K]CVIF had any effect	–	–
CC(C)C[C@@H]1NC(=O)[C@H](CCCNC(=N)N)NC(=O)[C@@H]2CSSC[C@@H]3NC(=O)[C@H](CO)NC(=O)[C@H](C)NC(=O)CNC(=O)[C@H](CCCCN)NC(=O)CNC(=O)[C@H](CCCCN)NC(=O)[C@@H](N)CSSC[C@H](NC(=O)[C@H](CSSC[C@@H](C(N)=O)NC(=O)[C@H](CCCNC(=N)N)NC(=O)CNC1=O)NC(=O)[C@H](CC(=O)O)NC(=O)[C@H](Cc1ccc(O)cc1)NC(=O)[C@H](CO)NC(=O)[C@H]([C@@H](C)O)NC(=O)[C@H](CCCNC(=N)N)NC(=O)[C@H](CCCNC(=N)N)NC3=O)C(=O)N[C@@H]([C@@H](C)O)C(=O)NCC(=O)N[C@@H](CO)C(=O)N2 [CVIF] (HELM PEPTIDE1{C.K.G.K.G.A.S.C.R.R.T.S.Y.D.C.C.T.G.S.C.R.L.G.R.C.[am]}$PEPTIDE1,PEPTIDE1,1:R3-16:R3|PEPTIDE1,PEPTIDE1,8:R3-20:R3|PEPTIDE1,PEPTIDE1,15:R3-25:R3$$$V2.0)	fully displaced	–	–	~50	73±10 % of control	61±7	completely relieves mechanical allodynia; also recorded: relieved mechanical allodynia	significant reversal of incapacitance; also recorded: subsided	substantially decreased side effects compared to CVID	–	–	–	–	–	–	does not affect	not affected
